Data published in patent US11198699B2 (ALIGOS THERAPEUTICS, INC., priority 2019, dated 2021).
pEC50, pIC50: −log10 of the molar value.

Assays:
[1] = system: A549 lung carcinoma cells; test: Cell proliferation assay, A549 (CellTiter-Glo, 7 days); format: cell-based; conditions: A549, 7 days, CellTiter-Glo 2.0
Description: (§1) HepG2 hepatoma cells (ATCC, HB-8065) were maintained in DMEM with high glucose (Lonza, 12-914F) supplemented with 10% fetal bovine serum (FBS; Biowest, S181B-500) and 2 mM L-glutamine (Biowest, X0551-100) at 37° C. and 5% CO2. A549 lung carcinoma cells (ATCC, CCL-185) were maintained in F-12K medium (ThermoFisher 21127030) supplemented with 10% FBS at 37° C. and 5% CO2. Exponentially growing HepG2 or A549 were plated in white, clear-bottom 96-well plates (Corning, 3903) at a cell density of 2000 (HepG2) or 350 (A549) cells per well in 199 μL of HepG2 medium. Next, 1 μL of a 5-fold 9-point dilution series of test compound in DMSO was added to the different wells. Cells were incubated at 37° C. 5% CO2 for 7 days. Cell viability was assessed on day 7 with the CellTiter-Glo 2.0 Cell Viability assay kit (Promega, G9243) to quantify the intracellular amounts of ATP: first, 100 μL of cell culture medium was removed from each well, next 100 μL of CellTiter-Glo® 2.0 Reagent was added and plates were shaken for 2 minutes on an orbital shaker. After 10 minutes stabilization at room temperature, read-out was performed on a ThermoFisher VarioSkan Lux plate reader. Counts were normalized to DMSO control (0% inhibition) and the cytotoxic control (100% inhibition) and EC50 values were determined in GraphPad Prism 8 using the [Agonist] vs. response—Variable slope (four parameters) function.
(§2) As shown by the data of Table 2, compounds of Formula (I) have activity in this assay. A value of ‘A’ in the table below indicates an EC50 of <20 nM, a value of ‘B’ indicates an EC50≥20 nM to <100 nM, a value of ‘C’ indicates an EC50 value of EC50≥100 nM to <1000 nM and a value of ‘D’ indicates an EC50≥1000 nM

PRMT5/MEP50 = PRMT5/MEP50 (Homo sapiens (Human), UniProt O14744); test: PRMT5/MEP50 enzyme inhibition assay, Assay 2 (384-well, MALDI mass spectrometry, histone H4 1-21 peptide); format: biochemical; conditions: 1 μM SAM, 0.1 μM histone H4 1-21 peptide, 18-hour incubation at rt
PRMT5/MEP50, sequence (O14744 whole entry): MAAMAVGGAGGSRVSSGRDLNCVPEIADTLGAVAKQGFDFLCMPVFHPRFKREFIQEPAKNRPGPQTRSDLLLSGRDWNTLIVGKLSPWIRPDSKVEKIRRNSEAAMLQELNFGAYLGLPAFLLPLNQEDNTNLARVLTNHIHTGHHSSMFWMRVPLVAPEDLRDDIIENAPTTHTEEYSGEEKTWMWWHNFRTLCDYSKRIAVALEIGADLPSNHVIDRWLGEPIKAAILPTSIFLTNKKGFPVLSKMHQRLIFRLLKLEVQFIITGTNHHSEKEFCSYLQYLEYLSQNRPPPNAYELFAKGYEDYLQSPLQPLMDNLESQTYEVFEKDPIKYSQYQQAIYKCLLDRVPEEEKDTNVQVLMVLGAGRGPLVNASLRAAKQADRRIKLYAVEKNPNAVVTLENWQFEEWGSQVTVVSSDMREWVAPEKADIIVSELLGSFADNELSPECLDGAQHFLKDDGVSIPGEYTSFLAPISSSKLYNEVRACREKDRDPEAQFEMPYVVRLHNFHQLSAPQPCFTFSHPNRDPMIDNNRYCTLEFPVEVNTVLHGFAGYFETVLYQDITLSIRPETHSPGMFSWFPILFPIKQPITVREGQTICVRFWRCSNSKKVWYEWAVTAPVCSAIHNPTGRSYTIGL
PRMT5/MEP50, sequence (Q9BQA1 whole entry partner): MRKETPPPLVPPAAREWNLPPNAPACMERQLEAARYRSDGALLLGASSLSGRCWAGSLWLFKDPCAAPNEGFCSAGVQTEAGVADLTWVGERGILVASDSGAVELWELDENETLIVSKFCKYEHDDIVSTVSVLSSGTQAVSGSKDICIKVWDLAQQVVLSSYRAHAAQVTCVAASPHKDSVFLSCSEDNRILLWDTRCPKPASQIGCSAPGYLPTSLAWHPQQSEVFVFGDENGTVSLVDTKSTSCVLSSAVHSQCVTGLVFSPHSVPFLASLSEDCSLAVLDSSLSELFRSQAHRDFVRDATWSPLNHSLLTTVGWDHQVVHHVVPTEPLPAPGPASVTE
Description: Compounds were tested for inhibition of methyltransferase activity in 384-well plate assay format using mass spectrometry technology. In this enzyme inhibition assay, compounds were tested in a 11-dose IC50 mode with 3-serial dilution, in duplicate, starting at 1, 10, or 100 μM. Reactions were carried out at 1 μM SAM and 0.1 μM histone H4 1-21 peptide as substrates for methyl transfer. Following an 18-hour incubation at rt, the reaction was stopped with 0.5% formic acid. Products of the reaction were captured while unreacted substrates were washed away, prior to MALDI mass spectrometry detection and analysis. Percent enzyme activity was calculated based on no inhibitor DMSO control as 100% activity. EC50 values were determined in GraphPad Prism 8 using the [inhibitor] vs. response—Variable slope (four parameters) function.
Compounds of Formula (I) show activity in this assay. A value of ‘A’ in the table below indicates an IC50 of <1 nM, a value of ‘B’ indicates an IC50≥1 nM to ≤100 nM, and a value of ‘C’ indicates an IC50 value of >100 nM.

HepG2 hepatoma cells = test: Cell proliferation assay, HepG2 (CellTiter-Glo, 7 days); format: cell-based; conditions: HepG2, 7 days, CellTiter-Glo 2.0
Description: as §1, §2

Row | SMILES | pEC50 ([1]; Homo sapiens, A549, 168 h) | pIC50 (PRMT5/MEP50) | pEC50 (HepG2 hepatoma cells; Homo sapiens, 168 h) | pEC50 [1] | pEC50 (HepG2 hepatoma cells)
1 | Nc1nc2cc(OC[C@@H]3[C@@H](O)[C@@H](O)C4(n5ccc6c(N)ncnc65)C[C@@H]34)ccc2cc1Br (mixture of isomers) [Compound 17, rac-(2S,3R,4R,5S)-4-[(2-amino-3-bromo-7-quinolyl)oxymethyl]-1-(4-aminopyrrolo[2,3-d]pyrimidin-7-yl)bicyclo[3.1.0]hexane-2,3-diol] | ≤ 6.00 | < 7.00 | ≤ 6.00 | – | –
2 | C[C@]1(CCc2ccc3cc(Br)c(N)nc3c2)C[C@@H](n2ccc3c(N)ncnc32)[C@H](O)[C@@H]1O [Compound 1] | > 7.70 | – | > 7.70 | – | –
3 | Nc1nc2cc(OC[C@@]34C[C@@H]3[C@@H](n3ccc5c(N)ncnc53)[C@H](O)[C@@H]4O)ccc2cc1Br [Compound 15, (1R,2R,3S,4R,5S)-1-[(2-amino-3-bromo-7-quinolyl)oxymethyl]-4-(4-aminopyrrolo[2,3-d]pyrimidin-7-yl)bicyclo[3.1.0]hexane-2,3-diol] | 6.00 to 7.00 | > 9.00 | 6.00 to 7.00 | – | –
4 | Cc1cnc2cc(OC[C@@]34C[C@@H]3[C@@H](n3ccc5c(N)ncnc53)[C@H](O)[C@@H]4O)ccn12 [Compound 16] | – | > 9.00 | – | ≤ 6.00 | ≤ 6.00
5 | C[C@]1(CCc2ccc3cc(Cl)c(N)nc3c2)C[C@@H](n2ccc3c(N)ncnc32)[C@H](O)[C@@H]1O [Compound 18] | – | > 9.00 | – | > 7.70 | > 7.70
6 | Nc1nc2cc(CC[C@@]34C[C@@H]3[C@@H](n3ccc5c(N)ncnc53)[C@H](O)[C@@H]4O)ccc2cc1Cl [Compound 19, (1R,2R,3S,4R,5S)-1-[2-(2-amino-3-chloro-7-quinolyl)ethyl]-4-(4-aminopyrrolo[2,3-d]pyrimidin-7-yl)bicyclo[3.1.0]hexane-2,3-diol] | > 7.70 | > 9.00 | > 7.70 | – | –
7 | CCCCCOC(=O)Nc1ccc2ccc(CC[C@@]3(C)C[C@@H](n4ccc5c(N)ncnc54)[C@H](O)[C@@H]3O)cc2n1 [Compound 20, pentyl N-[7-[2-[(1S,2R,3S,4R)-4-(4-aminopyrrolo[2,3-d]pyrimidin-7-yl)-2,3-dihydroxy-1-methyl-cyclopentyl]ethyl]-2-quinolyl]carbamate] | 7.00 to 7.70 | 7.00 to 9.00 | > 7.70 | – | –
8 | CCCCCOC(=O)Nc1ccc2cc(CC[C@@]3(C)C[C@@H](n4ccc5c(N)ncnc54)[C@H](O)[C@@H]3O)ccc2n1 [Compound 20-A] | 6.00 to 7.00 | < 7.00 | 6.00 to 7.00 | – | –
9 | C[C@]1(CCc2ccc3ccc(N)nc3c2)C[C@@H](n2ccc3c(N)ncc(F)c32)[C@H](O)[C@@H]1O [Compound 21, (1S,2R,3S,5R)-5-(4-amino-7-fluoro-pyrrolo[3,2-c]pyridin-1-yl)-3-[2-(2-amino-7-quinolyl)ethyl]-3-methyl-cyclopentane-1,2-diol] | > 7.70 | > 9.00 | > 7.70 | – | –
10 | C[C@]1(CCc2ccc3nc(N)ccc3c2)C[C@@H](n2ccc3c(N)ncc(F)c32)[C@H](O)[C@@H]1O [Compound 21-A] | ≤ 6.00 | 7.00 to 9.00 | ≤ 6.00 | – | –
11 | Nc1ccc2ccc(CC[C@@]34CC3[C@@H](n3ccc5c(N)ncnc53)[C@H](O)[C@@H]4O)nc2n1 (stereo partly drawn) [Compound 22, (1R,2R,3S,4R)-1-[2-(7-amino-1,8-naphthyridin-2-yl)ethyl]-4-(4-aminopyrrolo[2,3-d]pyrimidin-7-yl)bicyclo[3.1.0]hexane-2,3-diol] | 6.00 to 7.00 | > 9.00 | 6.00 to 7.00 | – | –
12 | C[C@]1(CCc2ccc3cc(C(F)F)c(N)nc3c2)C[C@@H](n2ccc3c(N)ncnc32)[C@H](O)[C@@H]1O [Compound 23] | – | > 9.00 | – | > 7.70 | > 7.70
13 | C[C@]1(CCc2ccc3ccc(N)nc3n2)C[C@@H](n2ccc3c(N)ncnc32)[C@H](O)[C@@H]1O [Compound 24] | – | > 9.00 | – | 7.00 to 7.70 | 7.00 to 7.70
14 | CC(C)C(=O)O[C@H]1[C@H](n2ccc3c(N)ncnc32)[C@H]2C[C@@]2(CCc2ccc3nc(N)ccc3c2)[C@H]1OC(=O)C(C)C [Compound 25-A, (1R,2R,3S,4R,5S)-4-(4-amino-7H-pyrrolo[2,3-d]pyrimidin-7-yl)-1-(2-(2-aminoquinolin-6-yl)ethyl)bicyclo[3.1.0]hexane-2,3-diyl bis(2-methylpropanoate)] | ≤ 6.00 | < 7.00 | ≤ 6.00 | – | –
15 | CC(C)C(=O)O[C@H]1[C@H](n2ccc3c(N)ncnc32)C[C@](C)(CCc2ccc3ccc(N)nc3c2)[C@H]1OC(=O)C(C)C [Compound 26, (1S,2R,3S,5R)-5-(4-amino-7H-pyrrolo[2,3-d]pyrimidin-7-yl)-3-(2-(2-aminoquinolin-7-yl)ethyl)-3-methylcyclopentane-1,2-diyl bis(2-methylpropanoate)] | 6.00 to 7.00 | < 7.00 | 7.00 to 7.70 | – | –
16 | CC(C)C(=O)O[C@H]1[C@H](n2ccc3c(N)ncnc32)C[C@](C)(CCc2ccc3nc(N)ccc3c2)[C@H]1OC(=O)C(C)C [Compound 26-A] | – | < 7.00 | – | ≤ 6.00 | ≤ 6.00
17 | C[C@]1(CCc2ccc3cc(C#N)c(N)nc3c2)C[C@@H](n2ccc3c(N)ncnc32)[C@H](O)[C@@H]1O [Compound 27] | – | > 9.00 | – | 7.00 to 7.70 | 7.00 to 7.70
18 | C[C@]1(CCc2ccc3cc(Cl)c(N)nc3c2)C[C@@H](n2ccc3c(N)ncnc32)[C@H](O)[C@]1(C)O [Compound 28] | – | > 9.00 | – | 6.00 to 7.00 | 7.00 to 7.70
19 | Cn1c(N)nc2cc(CC[C@@]3(C)C[C@@H](n4ccc5c(N)ncnc54)[C@H](O)[C@@H]3O)ccc2c1=O [Compound 29] | – | > 9.00 | – | 7.00 to 7.70 | > 7.70
20 | Cc1ncnc2c1ccn2[C@@H]1C[C@](C)(CCc2cc(F)c3cc(Cl)c(N)nc3c2)[C@@H](O)[C@H]1O [Compound 32, (1S,2R,3S,5R)-3-(2-(2-amino-3-chloro-5-fluoroquinolin-7-yl)ethyl)-3-methyl-5-(4-methyl-7H-pyrrolo[2,3-d]pyrimidin-7-yl)cyclopentane-1,2-diol] | > 7.70 | – | > 7.70 | – | –
21 | CCCCCOC(=O)Nc1nc2cc(CC[C@@]3(C)C[C@@H](n4ccc5c(N)ncnc54)[C@H](O)[C@@H]3O)ccc2cc1Cl [Compound 33, pentyl (7-(2-((1S,2R,3S,4R)-4-(4-amino-7H-pyrrolo[2,3-d]pyrimidin-7-yl)-2,3-dihydroxy-1-methylcyclopentyl)ethyl)-3-chloroquinolin-2-yl)carbamate] | > 7.70 | – | > 7.70 | – | –
22 | C[C@]1(CCc2cc(F)c3cc(Cl)c(N)nc3c2)C[C@@H](n2ccc3c(N)ncc(F)c32)[C@H](O)[C@@H]1O [Compound 34, (1S,2R,3S,5R)-3-[2-(2-amino-3-chloro-5-fluoro-7-quinolyl)ethyl]-5-(4-amino-7-fluoro-pyrrolo[3,2-c]pyridin-1-yl)-3-methyl-cyclopentane-1,2-diol] | > 7.70 | – | > 7.70 | – | –
23 | Nc1ccc2ccc(CC[C@@]3(F)C[C@@H](n4ccc5c(N)ncnc54)[C@H](O)[C@@H]3O)cc2n1 [Compound 35, (1S,2S,3R,5R)-5-(4-amino-7H-pyrrolo[2,3-d]pyrimidin-7-yl)-3-(2-(2-aminoquinolin-7-yl)ethyl)-3-fluorocyclopentane-1,2-diol] | > 7.70 | – | > 7.70 | – | –
24 | C[C@]1(CCc2cc(F)c3cc(Cl)c(N)nc3c2)C[C@@H](c2ccc3c(N)ncnn23)[C@H](O)[C@@H]1O [Compound 57] | – | > 9.00 | – | – | –
25 | COC[C@]1(CCc2ccc3cc(Br)c(N)nc3c2)C[C@@H](n2ccc3c(N)ncnc32)[C@H](O)[C@@H]1O [Compound 58] | – | > 9.00 | – | – | –
